Experiments:
[1] = test system: mouse neuronal cells (N2A cells); test: Cholesterol-treated neuronal cells (N2A), in vitro data for Alzheimer's disease; assay type: cell-based; conditions: 320 uM cholesterol
Method: In order to study the impact of Compound 40 on Alzheimer's Disease, cultured mouse neuronal cells (N2A cells) were treated with 320 uM cholesterol alone or with test molecule for 24 h. Cholesterol was removed and treatment is continued for 24 h. Cholesterol content in the cells was measured by biochemical methods, normalized to total protein. For gene expression studies, cells were treated with 320 uM cholesterol alone or with test molecule for 48 h. RNA was made and later converted to cDNA and the gene expression was measured. […] These cellular events lead to reduced plaque formation and improvement in the health of neuronal cells.

db/db mice = test: Effect of RXR agonist on db/db mice; assay type: in vivo; conditions: 2.5, 5, 10 and 15 mg/kg, BID, po
Method: The male db/db and lean mice were procured from Jackson Laboratory, US laboratories, acclimatized for a week, were fed a standard laboratory diet. The lean control and the db/db mice were 8 weeks old at the start of the study and were randomized to either vehicle or drug (Compound 40, 2.5, 5, 10 and 15 mg/kg, BID, po) treatment groups by body weight, fed glucose and glucose AUC during an oral glucose tolerance test. The treatment was continued for 8 weeks. Body weight, fasting and fed glucose and fast triglycerides (tail snip) were monitored weekly. At the end of week 8 of the treatment, glucose and insulin HbAlc levels were followed at different time intervals. Blood samples collected from tail nipping method were subjected at the end of week 7 of treatment period measured for HbAlc levels by DCA vantage (SIEMENS).
Assessment of 24 h glucose profile: Fed state blood samples were collected by tail nipping method and measured for glucose levels at every 2 h time intervals up to 8 h and then followed by 4 h intervals at the end of week 7 of treatment.

MIA PaCa-2 cells = test: ROS level (DCFH-DA probe) in MIA PaCa-2 cells; assay type: cell-based; conditions: 4 days treatment
Method: To assess the impact of Compound 40 on ROS level, the cells were exposed to ROS indicator probe (DCFH-DA) for 1 h. ROS induced increase in DCF fluorescence was estimated at 485 nm excitation and 528 nm emission. ROS levels were normalized to cellular DNA levels which were measured by using bis-benzamide fluorescence at 360 nm excitation and 460 nm emission. The ROS levels are represented at % of control. […] Over-expression of RXRa further augmented the ROS levels.

DIO mice = test: Compound 40 with exercise on metabolic profile in DIO mice; exercise endurance (tread mill) test; assay type: in vivo, male C57BL/6J mice
Method: Exercise endurance test or tread mill test (TMT): Exercise endurance test was accomplished on a motor treadmill at a low to moderate intensity of 5-20 cm/sec as maximal running speed with an intensity of 0.2 mA shock and one degree of inclination. The animals were subjected for TMT till exhaustion and different observations like distance traveled (cm), time spent on shock zone (sec), number of shocks, total time (min) were measured for all the mice in different groups.
Six week old male C57BL/6J mice were selected, acclimatized for a period of 1 week, Animals were assigned to either chow (10% kcal from fat) or high fat diet (HFD) (D12492; 60% kcal from fat), Research Diets, Inc., New Jersey, USA. After 11 weeks of the diet intervention, the HFD fed animals were assigned to specific treatment groups based upon body weight, glucose AUC during OGTT, fasting and fed blood glucose and fasting TG. The lean control mice (n=10) were fed with normal chow diet while the treatment group (n=10) and HFD Control (n=10), with and without exercise training, with high fat diet throughout the experimental period. Treatment group received Compound 40 with and without exercise training, at a dose of 10 mg/kg b.wt, once daily, po as suspension in 1% MC (methyl cellulose) as vehicle. Lean control and HFD controls animals were administered with vehicle. Exercise training was accomplished on a motor treadmill at a low to moderate intensity of 5-20 cm/sec as maximal running speed with an intensity of 0.2 mA shock and one degree of inclination. The animals were adapted to this procedure 5 days a week and different observations like distance traveled (cm), time spent on shock zone (sec), number of shocks, total time (min) will be measured for all the mice in different groups. Weekly body weight & daily feed consumption was recorded. The blood collected from tail vein was subjected for estimation of glucose and TG. OGTT was performed in 6 h fasted mice with 2 g/kg, of oral glucose challenge after 4 and 8 weeks of treatment. Then animals were euthanized and necropsied, the liver was excised immediately, weighed and taken to estimate liver triglyceride (TG). Different adipose depots were separated and weighed.

male Syrian Hamsters = test: High cholesterol diet induced hyperlipidaemia in hamsters; assay type: in vivo; conditions: 10 mg/kg b.wt, 8-12 weeks
Method: Eight to ten week old male Syrian Hamsters were housed in polypropylene cages provided with sterile paddy husk as bedding material. The animals were maintained at temperature 22±3° C., relative humidity 50-70%, 15-18 air cycle changes with 12 h dark and light cycle. The animals were provided with rodent feed (ad libitum) supplied by harlan laboratories to normal control animals and treatment groups were fed with High Cholesterol diet, prepared in-house by mixing 11.5% coconut oil, 11.5% corn oil, 0.5% cholesterol, and 0.25% deoxycholate in chow diet. Bisleri water (ad libitum) was provided. The animals were randomized based on body weight and divided into control and treatment groups. Compound 40 was administered, at a dose of 10 mg/kg b.wt, for a period of 8-12 weeks to the treatment group. Daily feed consumption, weekly body weight, total cholesterol and triglyceride levels were estimated.

[2] = test system: MCF7 breast cancer cell line; test: MCF7 breast cancer cell line: growth, BrdU incorporation, ROS, DNA fragmentation; assay type: cell-based
astrocytes = test: Astrocytes treated with PMA and LPS: ROS levels and inflammation markers; assay type: cell-based; conditions: 48 h
Method: Furthermore, cultured astrocytes were treated with phorbol-12-myristate-13-acetate (PMA) and Lipopolysaccharides (LPS) alone or with test molecule for 48 h to measure ROS levels. To evaluate the effect on inflammation markers, astrocytes were treated with PMA and test molecule for 48 h.

Structure (SMILES): CC1(C)CCC(C)(C)c2sc(N(CC3CC3)c3ccc(C(=O)O)cn3)nc21 [Compound 40, 6-[(Cyclopropylmethyl) (4,4,7,7-tetramethyl-4,5,6,7-tetrahydro-1,3-benzothiazol-2-yl)amino]pyridine-3-carboxylic acid]
- apoptosis (Caspase activity) [1]: decreased apoptosis
- cholesterol accumulation (cholesterol content in the cells) [1]: reduced cholesterol accumulation
- oxidative stress (ROS levels) [1]: reduced oxidative stress
- cholesterol efflux (ABCA1 and ABCG1 expression) ([1]; 48 h): increased the cholesterol efflux
- post-prandial blood glucose levels (db/db mice; 8 weeks): significantly reduced post-prandial blood glucose levels
- HbAlc levels (db/db mice; end of week 7): steep and dose dependent reduction
- glucose excursion during the prandial phase (24 h glucose profile) (db/db mice; end of week 7): significantly reduced glucose excursion
- ROS levels (MIA PaCa-2 cells): significant augmentation of stress levels
- Body weight (DIO mice; 10 mg/kg b.wt, once daily, po): improvement was also observed
- OGTT levels (DIO mice; 10 mg/kg b.wt, once daily, po): significant improvement
- fasting TG levels (DIO mice; 10 mg/kg b.wt, once daily, po): improvement was also observed
- fasting glucose (DIO mice; 10 mg/kg b.wt, once daily, po): significant improvement
- muscle endurance (DIO mice; DIO mice, tread mill test): significantly improves muscle endurance
- LDL-c (male Syrian Hamsters): significant reduction
- Non-HDL cholesterol (male Syrian Hamsters): significant reduction
- total cholesterol (male Syrian Hamsters): significant reduction
- BrdU incorporation ([2]; MCF7): significantly reduced
- apoptosis (DNA fragmentation) ([2]; MCF7): increased levels of apoptosis
- cellular stress (ROS levels) ([2]; MCF7): significant increase in cellular stress
- cell growth ([2]; MCF7, 3 uM): reduced cell growth
- oxidative stress (ROS levels) (astrocytes; PMA and LPS): reduce both oxidative stress
- inflammation (IL6 secretion and expression, expression of IL1b, COX2 and MCP1) (astrocytes; PMA): reduce inflammation

From US9862713B2, “Substituted bicyclic heteroaryl compounds as RXR agonists” (CONNEXIOS LIFE SCIENCES PVT. LTD., priority 2014, dated 2018)
